Read-outs that look alike come from different tables or passages of the source.
Legend:
[1] = test system: human epidermal melanocytes; conditions: cited from earlier work
HEMs = experiment: Melanin synthesis in L-tyrosine-stimulated HEMs; assay type: cell-based, human; conditions: for effect on melanin synthesis: concentrations of up to 10 μM
Method: Human epidermal melanocytes (HEM) derived from neonatal human foreskins were purchased from Cascade Biologics (Portland, Oreg., USA). The HEMs were cultivated in Medium 254 supplemented with human melanocyte growth supplements (Cascade Biologics) and antibiotics.
The extracellular melanin levels were evaluated by measuring the absorbance of the conditioned media at a wavelength of 490 nm, while the intracellular melanin levels were evaluated after extracting melanin from the cells using 0.1 M NaOH at 60° C. for 60 minutes. The values for melanin content were normalized with respect to the protein content in each sample. The protein content was evaluated using the Bio-Rad DC assay (Bio-Rad Laboratories, Inc., Hercules, Calif., USA).

[2] = test system: cultivated melanocytes and a reconstituted skin tissue model; conditions: cited from earlier work
[3] = test system: Human epidermal melanocytes (HEM); conditions: HEMs, 48 hours

Question: With `Oc1ccc(C=Cc2cc(O)cc(O)c2)cc1` [resveratrol] as the molecule, how does the “activity of MITF and TYR promoter” value [1] read?
Answer: The value was “suppresses”.

Question: And the melanin synthesis [1]?
Answer: The melanin synthesis was “inhibit melanin synthesis”.

Question: What does the source list for `OC[C@H]1O[C@@H](Oc2ccc(O)cc2)[C@H](O)[C@@H](O)[C@@H]1O` [arbutin]?
Answer: effect on melanin synthesis (HEMs): no effect; effect on melanin synthesis (HEMs; listed as Arbutin): no significant effect

Question: With `O=C(O)CO` [GA, glycolic acid] as the molecule, how does the “effect on melanin synthesis” value (HEMs) read?
Answer: The value was “no significant effect”.

Question: With `O=C(CO)Oc1ccc(/C=C/c2cc(OC(=O)CO)cc(OC(=O)CO)c2)cc1` [resveratryl triglycolate] as the molecule, how does the melanin level (HEMs) read?
Answer: Its melanin level is “reduced”.

Question: Which results are given for `CC(=O)Oc1ccc(C=Cc2cc(OC(C)=O)cc(OC(C)=O)c2)cc1` [RTA, resveratryl triacetate]?
Answer: stability to oxidation ([2]; compared to resveratrol): higher stability; toxicity ([2]; compared to resveratrol): less toxic; melanin synthesis ([2]; cultivated melanocytes and reconstituted skin tissue model): effective inhibitor; cytotoxicity ([3]; concentrations above 30 μM): showed cytotoxicity; cytotoxicity ([3]; concentrations below 30 μM): barely showed cytotoxicity
